Test [1] addresses T1, ΔF508-CFTR (Homo sapiens, UniProt P13569, DEL508-508).
T1 construct: host or cells: CFBE41o-, doxycycline-inducible
In words: CFTR cell surface levels using HRP-tagged ΔF508-CFTR expressing CFBE cells, intrinsic corrector capacity. Type of test: cell-based. A digest of the protocol:
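Here the cells express ΔF508-CFTR with horseradish peroxidase inserted in extracellular loop 4, so only rescued channel at the surface gives luminescent signal. Compounds act on their own, 20 h at the reduced temperature of 33 °C; values are percent activity relative to DMSO and a 3 μM corrector.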

Test [2] deals with T1, ΔF508-CFTR. Nature of the test: CFTR cell surface levels using HRP-tagged ΔF508-CFTR expressing CFBE cells, in the presence of a co-corrector. It is filed as cell-based. The gist of the method: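 Cells were seeded with 0.5 μg/mL doxycycline and held 68 h at 37 °C. Test compounds plus 3 μM co-corrector (final 0.1% DMSO) were then added for 20 h at 33 °C. Washed cells received HRP substrate, and luminescence was normalized between DMSO and 3 μM co-corrector controls.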

The mark [3] stands for this setting: HRP-tagged ΔF508-CFTR expressing CFBE cells, in the presence of 3 μM co-corrector.
The mark [4] stands for this setting: HRP-tagged ΔF508-CFTR expressing CFBE cells, in the presence of 3 μM co-corrector, read-out: EC50.
Where [5] appears, read: HRP-tagged ΔF508-CFTR expressing CFBE cells, intrinsic corrector capacity (no co-corrector), 33° C., 20 hours.
Setting [6] is: HRP-tagged ΔF508-CFTR expressing CFBE cells, intrinsic corrector capacity (no co-corrector), 33° C., 20 hours, read-out: EC50.
[7] abbreviates: HRP-tagged ΔF508-CFTR CFBE41o- cells, compounds alone (intrinsic corrector capacity), 20 hours at 33° C., positive control 3 μM corrector.
[8] abbreviates: HRP-tagged ΔF508-CFTR CFBE41o- cells, compounds alone (intrinsic corrector capacity), 20 hours at 33° C., read-out: EC50.

Some results are limits rather than exact numbers.

T1 sequence (P13569 with tags, fused parts or gaps DEL508-508): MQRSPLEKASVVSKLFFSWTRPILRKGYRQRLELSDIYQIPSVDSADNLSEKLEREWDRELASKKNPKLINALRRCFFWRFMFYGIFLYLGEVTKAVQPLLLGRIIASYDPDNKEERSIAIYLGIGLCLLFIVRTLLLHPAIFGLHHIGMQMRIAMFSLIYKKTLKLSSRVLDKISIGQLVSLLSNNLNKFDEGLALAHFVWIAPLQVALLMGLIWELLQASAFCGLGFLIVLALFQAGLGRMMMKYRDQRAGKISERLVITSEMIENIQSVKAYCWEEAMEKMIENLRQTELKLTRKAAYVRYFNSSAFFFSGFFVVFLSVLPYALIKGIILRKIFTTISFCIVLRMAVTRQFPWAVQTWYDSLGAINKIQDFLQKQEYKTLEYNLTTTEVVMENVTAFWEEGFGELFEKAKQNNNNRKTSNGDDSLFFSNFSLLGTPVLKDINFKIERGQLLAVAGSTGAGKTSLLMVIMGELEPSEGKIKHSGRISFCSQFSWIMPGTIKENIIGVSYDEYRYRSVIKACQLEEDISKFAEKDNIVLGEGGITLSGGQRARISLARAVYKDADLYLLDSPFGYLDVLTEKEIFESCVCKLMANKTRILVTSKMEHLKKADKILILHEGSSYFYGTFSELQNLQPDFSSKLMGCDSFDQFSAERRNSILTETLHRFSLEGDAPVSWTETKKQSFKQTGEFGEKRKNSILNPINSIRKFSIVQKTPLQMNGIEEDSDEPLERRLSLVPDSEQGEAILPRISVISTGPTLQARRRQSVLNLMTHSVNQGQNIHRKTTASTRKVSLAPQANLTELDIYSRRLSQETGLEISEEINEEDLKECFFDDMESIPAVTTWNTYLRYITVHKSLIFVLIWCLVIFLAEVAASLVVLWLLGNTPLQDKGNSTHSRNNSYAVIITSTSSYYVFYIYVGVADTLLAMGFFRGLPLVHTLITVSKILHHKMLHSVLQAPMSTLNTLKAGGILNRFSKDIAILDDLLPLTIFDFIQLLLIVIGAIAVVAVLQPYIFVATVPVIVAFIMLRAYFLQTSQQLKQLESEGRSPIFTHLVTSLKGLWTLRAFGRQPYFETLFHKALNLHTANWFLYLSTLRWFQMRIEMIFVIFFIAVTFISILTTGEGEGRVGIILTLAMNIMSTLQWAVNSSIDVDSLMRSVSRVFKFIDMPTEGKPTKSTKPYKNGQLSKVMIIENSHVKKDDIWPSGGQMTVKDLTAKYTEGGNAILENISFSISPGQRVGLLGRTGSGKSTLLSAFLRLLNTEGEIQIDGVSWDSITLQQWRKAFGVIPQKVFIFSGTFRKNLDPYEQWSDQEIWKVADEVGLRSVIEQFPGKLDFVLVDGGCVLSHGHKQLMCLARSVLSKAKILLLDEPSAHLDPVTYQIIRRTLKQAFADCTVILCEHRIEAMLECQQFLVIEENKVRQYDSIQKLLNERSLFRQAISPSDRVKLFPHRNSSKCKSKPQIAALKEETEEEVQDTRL

A word on the EC50: it is the concentration needed to bring the measured effect to its halfway point. Regarding `O=C(O)c1cc(N2CCC(N3CCOCC3)CC2)c2c(C3CCC3)nn(-c3cc(F)ccc3F)c2n1` [compound 916, 3-cyclobutyl-1-(2,5-difluorophenyl)-4-[4-(morpholin-4-yl)piperidin-1-yl]-1H-pyrazolo[3,4-b]pyridine-6-carboxylic acid], the “% Activation” value at ΔF508-CFTR [1] (HRP-tagged ΔF508-CFTR CFBE cells, compound alone (intrinsic corrector capacity), 20 hours at 33° C.) is on record as 165.25%; at ΔF508-CFTR [2] (setting [3]), 362.05%. In addition, the EC50 at ΔF508-CFTR [1] (HRP-tagged ΔF508-CFTR CFBE cells, compound alone (intrinsic corrector capacity), 20 hours at 33° C., read-out: EC50) came out at 1.67 µM; at ΔF508-CFTR [2] (setting [4]), 1.38 µM.

For `COCC1CN(C2CCN(c3cc(C(=O)O)nc4c3c(C3CCC3)nn4-c3ccc(F)cc3)CC2)CCO1` (centres unmarked) [compound 853, 3-cyclobutyl-1-(4-fluorophenyl)-4-{4-[2-(methoxymethyl)morpholin-4-yl]piperidin-1-yl}-1H-pyrazolo[3,4-b]pyridine-6-carboxylic acid], the “% Activation” value is on record as 290.9% at ΔF508-CFTR [1] (setting [5]) and 509.5% on ΔF508-CFTR [2] (setting [3]). In addition, the results for the EC50 at ΔF508-CFTR [1] (setting [6]) and at ΔF508-CFTR [2] (setting [4]) were 0.261 µM and 0.177 µM, respectively.

Consider `CCCN1CCN(c2cc(C(=O)O)nc3c2c(C(C)C)nn3-c2ccc(F)cc2)CC1` [compound 777, 1-(4-fluorophenyl)-3-(propan-2-yl)-4-(4-propylpiperazin-1-yl)-1H-pyrazolo[3,4-b]pyridine-6-carboxylic acid], for which the “% Activation” value was determined as 95% on ΔF508-CFTR [1] (setting [5]) and 254.9% at ΔF508-CFTR [2] (setting [3]). The EC50 was 1.67 µM at ΔF508-CFTR [1] (setting [6]) and 0.955 µM at ΔF508-CFTR [2] (setting [4]).

For `COCCN(C)c1ccc(-c2cc(C(=O)O)nc3c2c(C(C)C)nn3C2CCCCC2)cn1` [compound 170, 1-cyclohexyl-4-{6-[(2-methoxyethyl)(methyl)amino]pyridin-3-yl}-3-(propan-2-yl)-1H-pyrazolo[3,4-b]pyridine-6-carboxylic acid], the results for the “% Activation” value at ΔF508-CFTR [1] (setting [7]) and at ΔF508-CFTR [2] (setting [3]) were 208.6% and 482.4%, respectively. The concentration giving a half-maximal response (EC50) was found to be 0.738 µM at ΔF508-CFTR [1] (setting [8]) and 0.504 µM on ΔF508-CFTR [2] (setting [4]).

Regarding `CN(C)c1ncc(-c2cc(C(=O)O)nc3c2c(C(C)(C)C)nn3C2CCCC2)cn1` [compound 91, 3-tert-butyl-1-cyclopentyl-4-[2-(dimethylamino)pyrimidin-5-yl]-1H-pyrazolo[3,4-b]pyridine-6-carboxylic acid], the results for the “% Activation” value at ΔF508-CFTR [1] (setting [7]) and at ΔF508-CFTR [2] (setting [3]) were 43.54% and 176.6%, respectively. In addition, the EC50 at ΔF508-CFTR [1] (setting [8]) and on ΔF508-CFTR [2] (setting [4]) was 3.34 µM each time.

`O=C(O)c1cc(OCCCF)c2c(C3CCC3)nn(-c3ccccc3)c2n1` [compound 489, 3-cyclobutyl-4-(3-fluoropropoxy)-1-phenyl-1H-pyrazolo[3,4-b]pyridine-6-carboxylic acid]: the “% Activation” value turned out to be 106.4% on ΔF508-CFTR [1] (setting [5]) and 274.95% on ΔF508-CFTR [2] (setting [3]). The EC50 at ΔF508-CFTR [1] (setting [6]) was 1.86 µM; on ΔF508-CFTR [2] (setting [4]) it was 0.77 µM.

For `COCCC1(COc2cc(C(=O)O)nc3c2c(C)nn3-c2ccccc2)CC1` [compound 388, 4-{[1-(2-methoxyethyl)cyclopropyl]methoxy}-3-methyl-1-phenyl-1H-pyrazolo[3,4-b]pyridine-6-carboxylic acid], the “% Activation” value at ΔF508-CFTR [1] (setting [7]) is 50.555%; on ΔF508-CFTR [2] (setting [3]) it was 171.6%. Besides, the EC50 on ΔF508-CFTR [1] (setting [8]) came to 1.67 µM; on ΔF508-CFTR [2] (setting [4]), 1.46 µM.

Turning to `COCC1(F)CCCN(c2cc(C(=O)O)nc3c2c(C2CCC2)nn3-c2ccccc2)C1` (centres unmarked) [compound 595, 3-cyclobutyl-4-[3-fluoro-3-(methoxymethyl)piperidin-1-yl]-1-phenyl-1H-pyrazolo[3,4-b]pyridine-6-carboxylic acid], the figures for the “% Activation” value on ΔF508-CFTR [1] (setting [5]) and on ΔF508-CFTR [2] (setting [3]) were 162.8% and 383.8%, respectively. In addition, the concentration for a half-maximal effect (EC50) at ΔF508-CFTR [1] (setting [6]) was 0.347 µM; on ΔF508-CFTR [2] (setting [4]) it was 0.207 µM.

Regarding `O=C(O)c1cc(N2CCC(N3CCOCC3)CC2)c2c(C3CCC3)nn(-c3cc(F)cc(F)c3)c2n1` [compound 905, 3-cyclobutyl-1-(3,5-difluorophenyl)-4-[4-(morpholin-4-yl)piperidin-1-yl]-1H-pyrazolo[3,4-b]pyridine-6-carboxylic acid], the “% Activation” value worked out at 278.8% at ΔF508-CFTR [1] (setting [5]) and 466.55% on ΔF508-CFTR [2] (setting [3]). For the same molecule, the figures for the EC50 on ΔF508-CFTR [1] (setting [6]) and on ΔF508-CFTR [2] (setting [4]) were 0.362 µM and 0.145 µM, respectively.

`CC(C)c1nn(-c2ccc(OC(F)(F)F)cc2)c2nc(C(=O)O)cc(-c3ccc(N4CCOCC4)cc3)c12` [compound 43, 4-[4-(morpholin-4-yl)phenyl]-3-(propan-2-yl)-1-[4-(trifluoromethoxy)phenyl]-1H-pyrazolo[3,4-b]pyridine-6-carboxylic acid]: the “% Activation” value at ΔF508-CFTR [1] (setting [7]) came out at 187.4%; on ΔF508-CFTR [2] (setting [3]) it was 360.8%. Further, the EC50 at ΔF508-CFTR [1] (setting [8]) is 0.408 µM; on ΔF508-CFTR [2] (setting [4]), 0.371 µM.

On to `CC(C)c1nn([C@@H]2CCC[C@H](O)C2)c2nc(C(=O)O)cc(-c3ccc(N4CCOCC4)cc3)c12` (racemic) [compound 195, rac-1-[(1R,3S)-3-hydroxycyclohexyl]-4-[4-(morpholin-4-yl)phenyl]-3-(propan-2-yl)-1H-pyrazolo[3,4-b]pyridine-6-carboxylic acid], for which the “% Activation” value is 27.46% on ΔF508-CFTR [1] (setting [7]) and 174.9% at ΔF508-CFTR [2] (setting [3]). The results for the EC50 on ΔF508-CFTR [1] (setting [8]) and at ΔF508-CFTR [2] (setting [4]) were above 10 µM and 3.34 µM, respectively.

As to `Cc1ccc(-n2nc(C3CCC3)c3c(-c4ccc(N5CCOCC5)cc4)cc(C(=O)O)nc32)cc1F` [compound 355, 3-cyclobutyl-1-(3-fluoro-4-methylphenyl)-4-[4-(morpholin-4-yl)phenyl]-1H-pyrazolo[3,4-b]pyridine-6-carboxylic acid], the “% Activation” value is listed as 180.03% on ΔF508-CFTR [1] (setting [7]) and 360.63% at ΔF508-CFTR [2] (setting [3]). Also, the EC50 at ΔF508-CFTR [1] (setting [8]) is 0.74 µM; at ΔF508-CFTR [2] (setting [4]) it was 0.556 µM.

`CC(C)c1nn(-c2cccc(N(C)C)c2)c2nc(C(=O)O)cc(-c3ccc(N4CCC(C#N)CC4)nc3)c12` [compound 177]: the “% Activation” value is 364.43% at ΔF508-CFTR [1] (setting [7]) and 606.47% at ΔF508-CFTR [2] (setting [3]). The EC50 on ΔF508-CFTR [1] (setting [8]) is 0.701 µM; at ΔF508-CFTR [2] (setting [4]) it was 0.689 µM.

For `Cc1nn(-c2ccccc2)c2nc(C(=O)O)cc(N3CCC(C(=O)N4CCCC4)CC3)c12` [compound 305, 3-methyl-1-phenyl-4-[4-(pyrrolidine-1-carbonyl)piperidin-1-yl]-1H-pyrazolo[3,4-b]pyridine-6-carboxylic acid], the “% Activation” value on ΔF508-CFTR [1] (setting [7]) is 29.97%; on ΔF508-CFTR [2] (setting [3]), 170.5%. Moreover, the EC50 at ΔF508-CFTR [1] (setting [8]) was found to be 3.12 µM; on ΔF508-CFTR [2] (setting [4]), 1.44 µM.

For the molecule `Cc1nn(-c2ccccc2)c2nc(C(=O)O)cc(N3CCCC4(CC4)C3)c12` [compound 310, 4-(5-azaspiro[2.5]octan-5-yl)-3-methyl-1-phenyl-1H-pyrazolo[3,4-b]pyridine-6-carboxylic acid], the results for the “% Activation” value at ΔF508-CFTR [1] (setting [7]) and at ΔF508-CFTR [2] (setting [3]) were 88.73% and 199.65%, respectively. Besides, the values for the EC50 on ΔF508-CFTR [1] (setting [8]) and at ΔF508-CFTR [2] (setting [4]) were 1.89 µM and 1.61 µM, respectively.

Regarding `COC1CCN(C2CCN(c3cc(C(=O)O)nc4c3c(C3CCC3)nn4-c3ccc(F)cc3)CC2)C1` (centres unmarked) [compound 848, 3-cyclobutyl-1-(4-fluorophenyl)-4-[4-(3-methoxypyrrolidin-1-yl)piperidin-1-yl]-1H-pyrazolo[3,4-b]pyridine-6-carboxylic acid], the figures for the “% Activation” value on ΔF508-CFTR [1] (setting [5]) and on ΔF508-CFTR [2] (setting [3]) were 249% and 405.2%, respectively. In addition, the figures for the half-maximal effective concentration (EC50) on ΔF508-CFTR [1] (setting [6]) and at ΔF508-CFTR [2] (setting [4]) were 1.2 µM and 0.427 µM, respectively.

On to `O=C(O)c1cc(OCCN2CCCCCC2)c2c(C3CCC3)nn(-c3ccccc3)c2n1` [compound 643, 4-[2-(azepan-1-yl)ethoxy]-3-cyclobutyl-1-phenyl-1H-pyrazolo[3,4-b]pyridine-6-carboxylic acid], for which the results for the “% Activation” value on ΔF508-CFTR [1] (setting [5]) and at ΔF508-CFTR [2] (setting [3]) were 95.84% and 271.8%, respectively. The EC50 at ΔF508-CFTR [1] (setting [6]) worked out at 2.9 µM; at ΔF508-CFTR [2] (setting [4]) it was 1.26 µM.

In the case of `Cc1nn(-c2ccccc2)c2nc(C(=O)O)cc(O[C@H]3C[C@@H](N4CCS(=O)(=O)CC4)C3)c12` [compound 333, 4-{[cis-3-(1,1-dioxo-1λ^6,4-thiazinan-4-yl)cyclobutyl]oxy}-3-methyl-1-phenyl-1H-pyrazolo[3,4-b]pyridine-6-carboxylic acid], the figures for the “% Activation” value on ΔF508-CFTR [1] (setting [7]) and at ΔF508-CFTR [2] (setting [3]) were 27.26% and 150.85%, respectively. Moreover, the values for the EC50 at ΔF508-CFTR [1] (setting [8]) and at ΔF508-CFTR [2] (setting [4]) were 4.17 µM and 4.11 µM, respectively.

`O=C(O)c1cc(NCC2CCOCC2)c2c(C3CCC3)nn(-c3ccccc3)c2n1` [compound 590, 3-cyclobutyl-4-{[(oxan-4-yl)methyl]amino}-1-phenyl-1H-pyrazolo[3,4-b]pyridine-6-carboxylic acid]: the EC50 on ΔF508-CFTR [1] was 2.61 µM; on ΔF508-CFTR [2] it was 2.03 µM. For the same molecule, the “% Activation” value amounted to 141.3% on ΔF508-CFTR [1] (setting [5]) and 310.45% on ΔF508-CFTR [2] (setting [3]).

Consider `CC(C)(C)OC(=O)NC[C@H]1CCN(c2cc(C(=O)O)nc3c2c(C2CCC2)nn3-c2ccccc2)C1` [compound 672, 4-[(3R)-3-{[(tert-butoxycarbonyl)amino]methyl}pyrrolidin-1-yl]-3-cyclobutyl-1-phenyl-1H-pyrazolo[3,4-b]pyridine-6-carboxylic acid], for which the half-maximal effective concentration (EC50) on ΔF508-CFTR [1] was 0.748 µM; on ΔF508-CFTR [2], 0.553 µM. For the same molecule, the “% Activation” value on ΔF508-CFTR [1] (setting [5]) is given as 141.6%; on ΔF508-CFTR [2] (setting [3]), 343.15%.

The values are drawn from US9796711B2, “Substituted pyrazolo[3,4-b]pyridin-6-carboxylic acids and method of use” (AbbVie S.àr.l., priority 2015, dated 2017).
